# Measurements: ChEMBL document CHEMBL1201862, “PubChem BioAssay data set” (2004)
# Activity calls are given as the source filed them.
# How the values were obtained:
# [1] = molecular target: T1, Corticotropin-releasing factor receptor 2/Corticotropin-releasing factor-binding protein (Homo sapiens, UniProt P24387+Q13324); assay: Dose Response confirmation of uHTS hits for small molecule antagonists of the CRF-binding protein and CRF-R2 receptor complex.; type: functional; conditions: read-out: IC50_Mean
# T1 sequence (Q13324 whole entry): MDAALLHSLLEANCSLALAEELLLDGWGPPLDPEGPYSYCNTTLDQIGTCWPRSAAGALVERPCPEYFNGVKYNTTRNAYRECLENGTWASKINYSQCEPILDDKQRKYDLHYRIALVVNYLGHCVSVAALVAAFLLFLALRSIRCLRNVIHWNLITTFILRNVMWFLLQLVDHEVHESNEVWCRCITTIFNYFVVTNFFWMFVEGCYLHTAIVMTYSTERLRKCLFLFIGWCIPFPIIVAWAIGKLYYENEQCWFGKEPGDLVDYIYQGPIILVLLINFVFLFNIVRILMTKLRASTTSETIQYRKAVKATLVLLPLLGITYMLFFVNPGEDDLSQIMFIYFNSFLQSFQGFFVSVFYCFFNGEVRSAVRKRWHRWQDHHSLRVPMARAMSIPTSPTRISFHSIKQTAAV
# T1 sequence (P24387 whole entry): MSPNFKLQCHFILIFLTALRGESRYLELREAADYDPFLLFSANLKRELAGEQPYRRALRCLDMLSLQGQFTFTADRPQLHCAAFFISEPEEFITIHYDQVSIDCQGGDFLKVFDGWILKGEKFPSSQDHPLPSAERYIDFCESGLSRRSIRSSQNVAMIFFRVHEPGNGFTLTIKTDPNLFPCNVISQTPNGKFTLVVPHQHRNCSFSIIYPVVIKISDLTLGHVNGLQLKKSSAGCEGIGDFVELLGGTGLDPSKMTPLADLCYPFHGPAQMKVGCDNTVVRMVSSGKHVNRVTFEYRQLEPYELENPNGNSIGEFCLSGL
# [2] = molecular target: T1, Corticotropin-releasing factor receptor 2/Corticotropin-releasing factor-binding protein; assay: activators of CRF receptor 2 with binding protein – uHTS hits, confirmation (AID 602473); type: functional; conditions: read-out: EC50_Mean
# [3] = test system: Streptococcus sp. 'group A'; assay: growth inhibition of control SK(-) GAS strain, dose response, counter-screen for streptokinase expression inhibitor project, luminescence, kanamycin, BacTiterGlo, confirmation (AID 1900); type: functional, organism-based
# Streptokinase A = molecular target: T2, Streptokinase A (Streptococcus pyogenes serotype M1, UniProt P10520); assay: S. pyogenes streptokinase expression inhibitors, potency, dose response, plasminogen activation absorbance, OD405 (AID 1914); type: functional, Streptococcus pyogenes M1 GAS;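 also: secreted streptokinase activity via plasminogen activation per viability signal from cell pellet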
# T2 sequence (P10520 whole entry): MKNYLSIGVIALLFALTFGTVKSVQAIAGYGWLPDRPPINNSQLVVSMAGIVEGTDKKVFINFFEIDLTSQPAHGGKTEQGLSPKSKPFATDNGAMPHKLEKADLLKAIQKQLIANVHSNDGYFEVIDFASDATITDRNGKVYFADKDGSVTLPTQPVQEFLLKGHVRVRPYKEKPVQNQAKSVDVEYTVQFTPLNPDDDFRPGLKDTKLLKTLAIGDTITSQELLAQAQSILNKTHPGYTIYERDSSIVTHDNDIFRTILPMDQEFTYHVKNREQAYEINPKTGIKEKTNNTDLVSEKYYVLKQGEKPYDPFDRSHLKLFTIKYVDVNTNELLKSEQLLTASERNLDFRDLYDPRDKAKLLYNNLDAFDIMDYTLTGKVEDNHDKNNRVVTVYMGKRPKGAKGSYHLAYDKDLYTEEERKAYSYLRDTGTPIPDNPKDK
# Streptococcus = assay: Group A Streptococcus viability loss, dose response, counter-screen for streptokinase expression inhibitor project, luminescence, BacTiterGlo (AID 1915); type: functional, organism-based;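 also: potency for reduction of bacterial viability or growth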
# [4] = molecular target: FAD-linked sulfhydryl oxidase ALR (Homo sapiens, UniProt P55789); assay: inhibitors of human ALR sulfhydryl oxidase, dose response, biochemical, H2O2 detection, luminescence, cherry-pick (AID 493248)
# Sequence of FAD-linked sulfhydryl oxidase ALR (P55789 whole entry): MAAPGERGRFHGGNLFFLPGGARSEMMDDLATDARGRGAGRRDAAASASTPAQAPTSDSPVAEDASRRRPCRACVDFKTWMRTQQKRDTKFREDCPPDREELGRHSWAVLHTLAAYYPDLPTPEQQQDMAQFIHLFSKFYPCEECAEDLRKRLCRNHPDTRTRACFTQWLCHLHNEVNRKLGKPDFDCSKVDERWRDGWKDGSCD
# Cytochrome P450 2D6 = Cytochrome P450 2D6 (Homo sapiens, UniProt P10635);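 also: CYP2D6 member of a cytochrome P450 panel assay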
# Sequence of Cytochrome P450 2D6 (P10635 whole entry): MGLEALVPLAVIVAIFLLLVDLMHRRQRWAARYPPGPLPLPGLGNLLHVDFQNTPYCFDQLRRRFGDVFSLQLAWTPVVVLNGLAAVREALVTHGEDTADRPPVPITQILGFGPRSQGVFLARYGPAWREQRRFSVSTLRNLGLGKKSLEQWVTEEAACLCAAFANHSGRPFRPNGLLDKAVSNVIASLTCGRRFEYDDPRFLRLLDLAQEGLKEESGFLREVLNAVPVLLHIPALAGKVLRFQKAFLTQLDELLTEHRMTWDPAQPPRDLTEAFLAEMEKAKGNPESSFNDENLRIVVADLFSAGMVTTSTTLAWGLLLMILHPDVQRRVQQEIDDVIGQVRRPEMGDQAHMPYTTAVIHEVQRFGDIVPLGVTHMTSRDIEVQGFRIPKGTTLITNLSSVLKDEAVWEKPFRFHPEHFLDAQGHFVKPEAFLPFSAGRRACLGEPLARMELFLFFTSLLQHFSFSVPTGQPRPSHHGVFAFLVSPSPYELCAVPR
# Cytochrome P450 2C9 = Cytochrome P450 2C9 (Homo sapiens, UniProt P11712)
# Sequence of Cytochrome P450 2C9 (P11712 whole entry): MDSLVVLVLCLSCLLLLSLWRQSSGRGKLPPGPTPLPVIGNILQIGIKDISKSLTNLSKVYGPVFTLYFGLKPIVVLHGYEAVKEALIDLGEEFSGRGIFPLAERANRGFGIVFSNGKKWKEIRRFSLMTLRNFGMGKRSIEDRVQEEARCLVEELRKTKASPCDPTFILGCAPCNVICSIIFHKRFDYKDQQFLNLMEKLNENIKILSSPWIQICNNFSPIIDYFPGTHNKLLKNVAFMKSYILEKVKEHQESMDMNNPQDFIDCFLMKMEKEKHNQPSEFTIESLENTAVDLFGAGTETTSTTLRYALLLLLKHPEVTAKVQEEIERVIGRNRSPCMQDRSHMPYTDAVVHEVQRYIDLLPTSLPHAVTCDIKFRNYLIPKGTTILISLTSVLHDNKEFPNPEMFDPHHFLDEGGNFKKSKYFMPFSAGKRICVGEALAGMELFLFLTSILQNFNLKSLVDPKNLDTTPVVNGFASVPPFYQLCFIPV
# Cytochrome P450 3A4 = Cytochrome P450 3A4 (Homo sapiens, UniProt P08684);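 also: CYP3A4 tested as one member of a cytochrome P450 panel screen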
# Sequence of Cytochrome P450 3A4 (P08684 whole entry): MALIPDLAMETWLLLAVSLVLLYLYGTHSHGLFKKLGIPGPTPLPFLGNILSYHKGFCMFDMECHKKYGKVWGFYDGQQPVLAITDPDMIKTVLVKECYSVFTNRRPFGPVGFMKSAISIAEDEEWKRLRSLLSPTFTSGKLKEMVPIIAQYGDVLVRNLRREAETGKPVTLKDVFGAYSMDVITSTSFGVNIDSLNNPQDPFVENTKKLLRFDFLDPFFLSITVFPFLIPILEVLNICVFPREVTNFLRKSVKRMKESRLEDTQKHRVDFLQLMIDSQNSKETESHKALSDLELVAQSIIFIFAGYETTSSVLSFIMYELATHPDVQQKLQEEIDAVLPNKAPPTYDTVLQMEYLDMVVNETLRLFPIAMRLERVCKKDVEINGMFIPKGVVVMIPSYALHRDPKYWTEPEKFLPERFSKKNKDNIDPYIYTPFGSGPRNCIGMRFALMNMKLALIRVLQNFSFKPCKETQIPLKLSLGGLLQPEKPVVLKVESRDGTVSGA
# Cytochrome P450 2C19 = Cytochrome P450 2C19 (Homo sapiens, UniProt P33261); assay: Cytochrome panel assay with activity outcomes. Panel member name: p450-cyp2c19 Compounds with AC50 equal or less than 10 uM are considered active; type: functional
# Sequence of Cytochrome P450 2C19 (P33261 whole entry): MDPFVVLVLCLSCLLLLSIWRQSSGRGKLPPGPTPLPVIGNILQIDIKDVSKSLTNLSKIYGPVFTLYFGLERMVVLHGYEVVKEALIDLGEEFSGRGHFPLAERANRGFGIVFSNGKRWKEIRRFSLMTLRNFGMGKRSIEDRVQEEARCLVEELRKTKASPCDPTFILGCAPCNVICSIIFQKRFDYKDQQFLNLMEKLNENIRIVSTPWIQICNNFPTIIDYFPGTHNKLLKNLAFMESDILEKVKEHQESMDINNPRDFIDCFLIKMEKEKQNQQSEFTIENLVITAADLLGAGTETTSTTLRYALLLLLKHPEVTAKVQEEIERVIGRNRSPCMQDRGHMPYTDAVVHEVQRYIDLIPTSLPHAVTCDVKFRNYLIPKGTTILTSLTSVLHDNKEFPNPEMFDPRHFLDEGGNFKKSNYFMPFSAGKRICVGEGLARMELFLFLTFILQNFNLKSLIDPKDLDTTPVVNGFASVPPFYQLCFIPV
# Cytochrome P450 1A2 = molecular target: T3, Cytochrome P450 1A2 (Homo sapiens, UniProt P05177);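 also: PubChem cytochrome P450 panel assay, CYP1A2 panel member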
# T3 sequence (P05177 whole entry): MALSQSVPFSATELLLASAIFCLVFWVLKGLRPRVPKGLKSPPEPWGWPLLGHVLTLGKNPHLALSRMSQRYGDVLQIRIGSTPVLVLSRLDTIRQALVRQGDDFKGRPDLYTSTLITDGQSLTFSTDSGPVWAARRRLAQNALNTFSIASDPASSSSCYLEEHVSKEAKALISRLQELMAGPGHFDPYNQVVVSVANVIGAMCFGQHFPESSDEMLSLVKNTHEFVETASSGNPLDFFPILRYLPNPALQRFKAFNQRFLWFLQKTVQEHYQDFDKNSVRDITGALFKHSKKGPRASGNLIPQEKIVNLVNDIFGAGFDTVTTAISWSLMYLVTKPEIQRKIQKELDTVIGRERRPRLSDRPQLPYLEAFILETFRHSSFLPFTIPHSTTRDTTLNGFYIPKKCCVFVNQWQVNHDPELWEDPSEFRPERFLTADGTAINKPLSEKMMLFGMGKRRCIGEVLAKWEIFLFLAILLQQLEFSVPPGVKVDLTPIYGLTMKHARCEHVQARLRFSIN
# Paired box protein Pax-8 = Paired box protein Pax-8 (Homo sapiens, UniProt Q06710); assay: inhibitors of PAX8-driven TPO luciferase reporter, dose response, RMG-I cells, cherry-pick (AID 687027); type: functional, cell-based;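 also: luciferase reporter driven by Pax8 target thyroperoxidase promoter measured by SteadyGlo luminescence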
# Sequence of Paired box protein Pax-8 (Q06710 whole entry): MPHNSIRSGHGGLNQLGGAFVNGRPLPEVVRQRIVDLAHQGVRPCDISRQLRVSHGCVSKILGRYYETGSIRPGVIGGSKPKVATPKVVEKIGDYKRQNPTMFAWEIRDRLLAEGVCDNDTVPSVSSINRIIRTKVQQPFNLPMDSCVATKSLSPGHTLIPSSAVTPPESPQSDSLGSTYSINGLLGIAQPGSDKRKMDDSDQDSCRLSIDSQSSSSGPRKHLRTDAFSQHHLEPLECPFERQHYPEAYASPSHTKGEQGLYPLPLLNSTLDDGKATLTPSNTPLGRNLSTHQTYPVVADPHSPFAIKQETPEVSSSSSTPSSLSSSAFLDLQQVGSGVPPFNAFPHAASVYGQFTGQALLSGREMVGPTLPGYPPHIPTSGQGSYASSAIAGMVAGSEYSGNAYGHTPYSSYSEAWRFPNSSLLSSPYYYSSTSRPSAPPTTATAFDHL
structure (smiles),measurement,setting,value
Cc1ccc(C)c(NC(=O)Cn2cnc3c(oc4ccccc43)c2=O)c1,IC50,[1],> 47.1 µM (inactive)
same,EC50,[2],> 53 µM (inactive)
CCOC(=O)C1=C(N)Oc2ccc3ccccc3c2C1c1ccc(O)cc1 (stereo not given),EC50,[3],8.94 µM (active)
same,EC50,Streptokinase A,11.5 µM (active)
same,EC50,Streptococcus,> 150 µM (not active)
CN1c2ccc([N+](=O)[O-])cc2C(C)(C)C12C=Cc1cc(C(=O)O)ccc1O2 (stereo not given),AC50,[4],1.47 µM (active)
N#Cc1cccc(-c2ccc3ncnc(NCc4cccs4)c3c2)c1,AC50,Cytochrome P450 2D6,12.6 µM (inconclusive)
same,AC50,Cytochrome P450 2C9,0.501 µM (inconclusive)
C[N+](C)(C)CCC(=O)c1cccc2ccccc12,AC50,Cytochrome P450 2D6,10 µM (inconclusive)
same,AC50,Cytochrome P450 3A4,0.2 µM (inconclusive)
same,AC50,Cytochrome P450 2C9,12.6 µM (inconclusive)
COc1ccccc1CNC(=O)C1CC(=O)N(C2CCCC2)C1 (stereo not given),AC50,Cytochrome P450 2C19; read-out: AC50,28.2 µM (inconclusive)
same,AC50,Cytochrome P450 3A4,22.4 µM (inconclusive)
same,AC50,Cytochrome P450 2C9,0.0224 µM (inconclusive)
CC(NC(=O)CCCCCNC(=O)N1CCn2c1nc1ccccc12)c1ccccc1 (stereo not given),AC50,[4],4.51 µM (active)
Cc1nn(CC(O)CN2c3ccccc3Sc3ccccc32)c(C)c1Br (stereo not given),EC50,[3],3.47 µM (active)
same,EC50,Streptokinase A,8 µM (active)
same,EC50,Streptococcus,21.4 µM (active)
Cc1nnc(O)c2c(NC(=O)CSc3nnnn3-c3ccccc3)oc(C)c12,EC50,[3],> 150 µM (not active)
same,EC50,Streptokinase A,> 150 µM (not active)
same,EC50,Streptococcus,> 150 µM (not active)
COc1ccccc1-n1cnnc1SCC(=O)NCc1cccs1,IC50,[1],> 47.1 µM (inactive)
same,EC50,[2],> 53 µM (inactive)
Cc1ccc(CNC(=O)c2cc(-c3ccccc3C)n(CC3CC(c4cccc([N+](=O)[O-])c4)=NO3)n2)cc1 (stereo not given),IC50,[1],> 47.1 µM (inactive)
same,EC50,[2],> 53 µM (inactive)
CC(C)C(=O)Nc1ccc(C(=O)NNC(=O)C(c2ccccc2)c2ccccc2)cc1,AC50,Cytochrome P450 3A4,4.47 µM (inconclusive)
same,AC50,Cytochrome P450 2C9,5.01 µM (inconclusive)
Cc1cccc(OCc2nnc(S)n2-c2ccccc2)c1,AC50,[4],1.6 µM (active)
CCC1C(=O)N=C(SCC(=O)Nc2ccc(C(=O)OC)cc2)NC1=O (stereo not given),AC50,Cytochrome P450 2C9,31.6 µM (inconclusive)
Cc1ccc(Nc2nc(CSc3n[nH]c(N)n3)cs2)cc1,AC50,[4],< 0.005 µM (active)
CSc1nc2n(n1)C(c1cccc(F)c1)C(C(=O)Nc1ccc(C)cc1C)=C(C)N2 (stereo not given),AC50,Cytochrome P450 3A4,0.708 µM (inconclusive)
same,AC50,Cytochrome P450 2C9,3.98 µM (inconclusive)
CC(C)CN(C(=O)COc1ccc(-c2nnco2)cc1)C1CCS(=O)(=O)C1 (stereo not given),EC50,[3],> 150 µM (not active)
same,EC50,Streptokinase A,> 150 µM (not active)
same,EC50,Streptococcus,> 150 µM (not active)
COC(=O)c1cnn(C(=O)c2ccccc2Br)c1N,AC50,Cytochrome P450 2C9,22.4 µM (inconclusive)
CC(C)(C)NC(=O)C(=O)NNC(=O)c1ccccc1,AC50,Cytochrome P450 2C19,inconclusive
same,AC50,Cytochrome P450 2C9,1.78 µM (inconclusive)
Cc1cccc(C)c1OCC(=O)Nc1ccccc1N1CCCCC1,EC50,[3],3.36 µM (active)
same,EC50,Streptokinase A,4.15 µM (active)
same,EC50,Streptococcus,12.5 µM (active)
CCCCC(NC(=O)CCc1c(C)c2cc3c4c(oc3c(C)c2oc1=O)CCCC4)C(=O)O (stereo not given),AC50,[4],7.78 µM (active)
CCOc1cc(CNc2ccc(OC)cc2)cc(Br)c1OCC(=O)NC(C)(C)C,AC50,Cytochrome P450 2C9,7.08 µM (inconclusive)
Cc1ccccc1NC(=O)C(=O)NC(C)CCc1ccccc1 (stereo not given),EC50,[3],> 150 µM (not active)
same,EC50,Streptokinase A,> 150 µM (not active)
same,EC50,Streptococcus,> 150 µM (not active)
COc1cc(NC(=O)c2ccccc2Cl)ccc1NC(=O)c1ccco1,AC50,Cytochrome P450 2D6,22.4 µM (inconclusive)
same,AC50,Cytochrome P450 1A2,17.8 µM (inconclusive)
same,AC50,Cytochrome P450 2C9,1.12 µM (inconclusive)
COc1ccc(Cc2nnc(NC(=O)c3ccc(Cl)c([N+](=O)[O-])c3)s2)cc1,AC50,Cytochrome P450 3A4,0.631 µM (inconclusive)
same,AC50,Cytochrome P450 2C9,1.41 µM (inconclusive)
CCN(CC)CCCNC(=O)C1CCC(=O)N(c2ccc(OC)cc2)C1c1ccc(F)cc1 (stereo not given),AC50,Cytochrome P450 2C19,inconclusive
same,AC50,Cytochrome P450 2C9,39.8 µM (inconclusive)
N#Cc1ccc(CN2CC[C@@]3(CCCN(C(=O)c4ccncc4)C3)C2)cc1,AC50,Cytochrome P450 2D6,20 µM (inconclusive)
same,AC50,Cytochrome P450 1A2,39.8 µM (inconclusive)
same,AC50,Cytochrome P450 2C9,31.6 µM (inconclusive)
CCN(CC)C(=O)c1csc(Nc2ccc(C)cc2)n1,AC50,[4],5.19 µM (active)
CCCCOc1ccc(C(=O)N/C(=C\c2cccc([N+](=O)[O-])c2)C(=O)OCCC)cc1,AC50,Cytochrome P450 2C9,0.708 µM (inconclusive)
CCOC(=O)c1cnn(-c2nc(-c3cccc(F)c3)cs2)c1C(F)(F)F,EC50,[3],9.99 µM (active)
same,EC50,Streptokinase A,20.8 µM (active)
same,EC50,Streptococcus,17.6 µM (active)
Oc1cccc2ccc(/C=C/c3c(F)cccc3Cl)nc12,EC50,[3],0.589 µM (active)
same,EC50,Streptokinase A,> 150 µM (not active)
same,EC50,Streptococcus,32.2 µM (active)
O=C(Cc1ccccc1)NNc1c2ccccc2nc2ccccc12,AC50,[4],2.43 µM (active)
CC(C)c1ccc(CNc2cc(N3CCCC3)ccc2[N+](=O)[O-])cc1,AC50,Cytochrome P450 2C9,2.24 µM (inconclusive)
CCOC(=O)c1sc(NC(=O)CSc2n[nH]c(-c3ccncc3)n2)c(C#N)c1C,IC50,[1],16.3 µM (active)
same,EC50,[2],8.57 µM (active)
CCC1=C(C[C@H]2NCCc3cc(OC)c(OC)cc32)C[C@H]2c3ccccc3CCN2C1,AC50,Cytochrome P450 3A4,3.16 µM (inconclusive)
same,AC50,Cytochrome P450 2C9,3.16 µM (inconclusive)
Cc1cccc(-n2c(-c3ccoc3C)n[nH]c2=S)c1,AC50,[4],7.34 µM (active)
Cc1ccccc1N=Nc1c(N)n[nH]c1N,AC50,[4],5.72 µM (active)
CNS(=O)(=O)c1cnccc1N1CCN(c2cccc(C)c2)CC1,AC50,[4],< 0.005 µM (active)
CC1=CN2C(=NC(=O)CC2(C)C(=O)N(CC(=O)NC2CCCC2)c2ccccc2C)C=C1 (stereo not given),IC50,[1],> 47.1 µM (inactive)
same,EC50,[2],> 53 µM (inactive)
CNc1ccc(C2(O)C(=O)c3ccccc3C2=O)cc1,AC50,[4],0.664 µM (active)
Oc1[nH]ncc1/C=N/c1ccc(Cl)cc1,IC50,[1],> 47.1 µM (inactive)
same,EC50,[2],> 53 µM (inactive)
C[C@@H]1CN([C@H](C)CO)C(=O)c2cc(NS(=O)(=O)c3ccc(Cl)cc3)ccc2O[C@@H](C)CCCCO[C@H]1CN(C)C(=O)C1CCCCC1,AC50,Paired box protein Pax-8,15.8 µM (active)
COc1ccc(CC(=O)N/N=C(\C)CC(=O)Nc2ccc(N(C)C)cc2)cc1,AC50,[4],2.04 µM (active)
CC/C(=N\NC(=S)Nc1cc(C)ccc1C)c1ccc(OC(F)F)cc1,EC50,[3],6.27 µM (active)
same,EC50,Streptokinase A,> 150 µM (not active)
same,EC50,Streptococcus,11.8 µM (active)
CN(C)c1ccc(/C=N/NC(=O)c2ccc3c(c2)OCO3)cc1,AC50,[4],4.72 µM (active)
Sc1nnc(-c2ccccc2)c(-c2ccccc2)n1,AC50,[4],0.567 µM (active)
